Test results as given in patent US4874856A, “3-(substituted)propenyl-7-(aminothiazolylacetamido) ceph-3-em-4-carboxylic acids and esters thereof” (Bristol-Myers Company, priority 1987, dated 1989).
Converted amounts (≈) assume the structure as drawn. Read-outs that look alike come from different tables or passages of the source.

Key:
Format in all cases: cell-based
PCresistant S. aureus = assay: In vitro MIC, two-fold serial agar dilution in Mueller-Hinton agar, GpIb strains; settings: Staphylococcus aureus, 5 strains, read-out: Geometric mean of MIC, GpIb
Protocol: (§1) The in vitro antibacterial activity of the parent cephalosporanic acids of Formula I wherein R^4 is hydrogen is shown in Table 1 in terms of geometric mean of the Minimum Inhibitory Concentrations (MIC's) which were determined by the two-fold serial agar dilution method in Mueller-Hinton agar against 25 strains of test organisms in five groups.
GpIb: PCresistant S. aureus

[1] = test system: Penicillin(PC)sensitive S. aureus; assay: In vitro MIC, two-fold serial agar dilution in Mueller-Hinton agar, Gp-Ia strains; settings: Staphylococcus aureus; GpIa, 5 strains; read-out: Geometric mean of MIC, GpIa
Protocol: as §1
Gp-Ia: Penicillin(PC)sensitive S. aureus

[2] = test system: Cephalothin(CET)sensitive E. coli (2 strains), K. pneumoniae (1) an P. mirabilis (2); assay: In vitro MIC, two-fold serial agar dilution in Mueller-Hinton agar, GnIa strains; settings: 5 strains, read-out: Geometric mean of MIC, GnIa
Protocol: as §1
GnIa: Cephalothin(CET)sensitive E. coli (2 strains), K. pneumoniae (1) an […]

Proteus vulgaris = assay: In vitro MIC, Mueller-Hinton agar, inoculum 10^6 cells/ml
Text: (§2) Table 6 is a comparison of the in vitro antibacterial activities of Compound 29 and the vinyl homolog thereof FK-482 against clinically important pathogens. Thirty-seven organisms were more than 4-fold more susceptible to Compound 29 than to FK-482. FK-482 has the following formula and is described by Takaya, et al. in U.S. Pat. No. 4,559,334 patented Dec. 17, 1985 (filed Oct. 20, 1983). [drawing 14]
(§3) *; Geometric mean of MIC (μg/ml)
(§4) Mueller-Hinton agar Inoculum size; 10^6 cells/ml

Citrobacter freundii = assay: as above
Text: as §2, §3, §4

Providencia rettgeri = assay: as above
Text: as §2, §3, §4

Serratia marcescens = assay: as above
Text: as §2, §3, §4

Enterobacter aerogenes = assay: as above; settings: Klebsiella aerogenes
Text: as §2, §3, §4

Enterobacter cloacae = assay: as above
Text: as §2, §3, §4

Serratia species = assay: as above
Text: as §2, §3, §4

Morganella morganii = assay: as above
Text: as §2, §3, §4

Proteus mirabilis = assay: as above
Text: as §2, §3, §4

[3] = test system: CETresistant E. coli (3) and K. pneumoniae (2); assay: In vitro MIC, two-fold serial agar dilution in Mueller-Hinton agar, GnIb strains; settings: Escherichia coli, 5 strains, read-out: Geometric mean of MIC, GnIb
Protocol: as §1
GnIb: CETresistant E. coli (3) and K. pneumoniae (2)

**Q.** What does the source list for `C/C=C\C1=C(C(=O)O)N2C(=O)[C@@H](NC(=O)/C(=N\O)c3csc(N)n3)[C@H]2SC1` [Compound 29, 7β-[(Z)-2-(2-aminothiazol-4-yl)-2-(hydroxyimino)acetamido]-3-[(Z)-prop-1-en-1-yl]-3-cephem-4-carboxylic acid]?
**A.** MIC (PCresistant S. aureus): 0.4 µg/mL (≈ 0.977 µM); MIC [1]: 0.2 µg/mL (≈ 0.488 µM); MIC [2]: 0.066 µg/mL (≈ 0.161 µM); MIC (Proteus vulgaris; (GM) of the Proteus vulgaris strains, read-out: Geometric mean of MIC): 1 µg/mL (≈ 2.44 µM); MIC (Proteus vulgaris; strain A 9436, read-out: MIC): 0.1 µg/mL (≈ 0.244 µM); MIC (Proteus vulgaris; strain A 9526, read-out: MIC): 3.1 µg/mL (≈ 7.57 µM); MIC (Proteus vulgaris; strain A 9699, read-out: MIC): 1.6 µg/mL (≈ 3.91 µM); MIC (Proteus vulgaris; strain AKH-26, read-out: MIC): > 50 µg/mL; MIC (Proteus vulgaris; strain HX-19 MS-1, read-out: MIC): 0.1 µg/mL (≈ 0.244 µM); MIC (Proteus vulgaris; strain OX-19 MS-1, read-out: MIC): 0.2 µg/mL (≈ 0.488 µM); MIC (Citrobacter freundii; (GM) of the Citrobacter freundii strains, read-out: Geometric mean of MIC): 1.7 µg/mL (≈ 4.15 µM); MIC (Citrobacter freundii; strain A21312, read-out: MIC): > 50 µg/mL; MIC (Citrobacter freundii; strain A22140, read-out: MIC): 1.6 µg/mL (≈ 3.91 µM); MIC (Citrobacter freundii; strain A22141, read-out: MIC): 1.6 µg/mL (≈ 3.91 µM); MIC (Citrobacter freundii; strain A22142, read-out: MIC): 0.8 µg/mL (≈ 1.95 µM); MIC (Citrobacter freundii; strain A22160, read-out: MIC): 0.8 µg/mL (≈ 1.95 µM); MIC (Citrobacter freundii; strain A22161, read-out: MIC): 0.8 µg/mL (≈ 1.95 µM); MIC (Citrobacter freundii; strain A22166, read-out: MIC): 0.8 µg/mL (≈ 1.95 µM); MIC (Citrobacter freundii; strain A22175, read-out: MIC): 0.8 µg/mL (≈ 1.95 µM); MIC (Citrobacter freundii; strain A22176, read-out: MIC): 0.8 µg/mL (≈ 1.95 µM); MIC (Citrobacter freundii; strain A22177, read-out: MIC): 3.1 µg/mL (≈ 7.57 µM); MIC (Providencia rettgeri; (GM) of the Providencia rettgeri strains, read-out: Geometric mean of MIC): 0.015 µg/mL (≈ 0.0366 µM); MIC (Providencia rettgeri; IFO3850, strain IFO 3850 MS-1, read-out: MIC): < 0.0063 µg/mL; MIC (Providencia rettgeri; strain A 9637, read-out: MIC): < 0.0063 µg/mL; MIC (Providencia rettgeri; strain A15167 (first line), read-out: MIC): < 0.0063 µg/mL; MIC (Providencia rettgeri; strain A15167 (second line), read-out: MIC): 0.013 µg/mL (≈ 0.0317 µM); MIC (Providencia rettgeri; strain A20645, read-out: MIC): 0.4 µg/mL (≈ 0.977 µM); MIC (Providencia rettgeri; strain A20915, read-out: MIC): 0.8 µg/mL (≈ 1.95 µM); MIC (Providencia rettgeri; strain A20920, read-out: MIC): < 0.0063 µg/mL; MIC (Providencia rettgeri; strain A20921, read-out: MIC): < 0.0063 µg/mL; MIC (Providencia rettgeri; strain A21205, read-out: MIC): 0.025 µg/mL (≈ 0.0611 µM); MIC (Providencia rettgeri; strain A21270, read-out: MIC): 0.025 µg/mL (≈ 0.0611 µM); MIC (Serratia marcescens; (GM) of the Serratia marcescens strains, read-out: Geometric mean of MIC): 13 µg/mL (≈ 31.7 µM); MIC (Serratia marcescens; strain A20019, read-out: MIC): 1.6 µg/mL (≈ 3.91 µM); MIC (Serratia marcescens; strain A20222, read-out: MIC): 3.1 µg/mL (≈ 7.57 µM); MIC (Serratia marcescens; strain A20333, read-out: MIC): > 50 µg/mL; MIC (Serratia marcescens; strain A20334, read-out: MIC): > 50 µg/mL; MIC (Serratia marcescens; strain A20335, read-out: MIC): 1.6 µg/mL (≈ 3.91 µM); MIC (Serratia marcescens; strain A20336, read-out: MIC): 3.1 µg/mL (≈ 7.57 µM); MIC (Serratia marcescens; strain A20442, read-out: MIC): 3.1 µg/mL (≈ 7.57 µM); MIC (Serratia marcescens; strain A20459, read-out: MIC): > 50 µg/mL; MIC (Serratia marcescens; strain A20460, read-out: MIC): 12.5 µg/mL (≈ 30.5 µM); MIC (Serratia marcescens; strain A20461, read-out: MIC): > 50 µg/mL; MIC (Enterobacter aerogenes; (GM) of the Enterobacter aerogenes strains, read-out: Geometric mean of MIC): 4.9 µg/mL (≈ 12 µM); MIC (Enterobacter aerogenes; strain A20940, read-out: MIC): > 50 µg/mL; MIC (Enterobacter aerogenes; strain A20941, read-out: MIC): 1.6 µg/mL (≈ 3.91 µM); MIC (Enterobacter aerogenes; strain A20943, read-out: MIC): 0.8 µg/mL (≈ 1.95 µM); MIC (Enterobacter aerogenes; strain A20958, read-out: MIC): 6.3 µg/mL (≈ 15.4 µM); MIC (Enterobacter aerogenes; strain A20961, read-out: MIC): 3.1 µg/mL (≈ 7.57 µM); MIC (Enterobacter aerogenes; strain A20966, read-out: MIC): 6.3 µg/mL (≈ 15.4 µM); MIC (Enterobacter aerogenes; strain A20971, read-out: MIC): 1.6 µg/mL (≈ 3.91 µM); MIC (Enterobacter aerogenes; strain A20985, read-out: MIC): > 50 µg/mL; MIC (Enterobacter aerogenes; strain A20994, read-out: MIC): 6.3 µg/mL (≈ 15.4 µM); MIC (Enterobacter aerogenes; strain A20996, read-out: MIC): 0.8 µg/mL (≈ 1.95 µM); MIC (Enterobacter aerogenes; strain A21013, read-out: MIC): 3.1 µg/mL (≈ 7.57 µM); MIC (Enterobacter aerogenes; strain A21036, read-out: MIC): > 50 µg/mL; MIC (Enterobacter aerogenes; strain A21037, read-out: MIC): 0.4 µg/mL (≈ 0.977 µM); MIC (Enterobacter aerogenes; strain A21038, read-out: MIC): 0.8 µg/mL (≈ 1.95 µM); MIC (Enterobacter aerogenes; strain A21039, read-out: MIC): 6.3 µg/mL (≈ 15.4 µM); MIC (Enterobacter aerogenes; strain A21043, read-out: MIC): 12.5 µg/mL (≈ 30.5 µM); MIC (Enterobacter aerogenes; strain A21044, read-out: MIC): 25 µg/mL (≈ 61.1 µM); MIC (Enterobacter aerogenes; strain A21118, read-out: MIC): 50 µg/mL (≈ 122 µM); MIC (Enterobacter aerogenes; strain A21120, read-out: MIC): 6.3 µg/mL (≈ 15.4 µM); MIC (Enterobacter aerogenes; strain A21130-1, read-out: MIC): 6.3 µg/mL (≈ 15.4 µM); MIC (Enterobacter aerogenes; strain A21131, read-out: MIC): 0.8 µg/mL (≈ 1.95 µM); MIC (Enterobacter aerogenes; strain A21152, read-out: MIC): 0.8 µg/mL (≈ 1.95 µM); MIC (Enterobacter aerogenes; strain A21155, read-out: MIC): 3.1 µg/mL (≈ 7.57 µM); MIC (Enterobacter aerogenes; strain A21158, read-out: MIC): 6.3 µg/mL (≈ 15.4 µM); MIC (Enterobacter aerogenes; strain A21503, read-out: MIC): 3.1 µg/mL (≈ 7.57 µM); MIC (Enterobacter cloacae; (GM) of the Enterobacter cloacae strains, read-out: Geometric mean of MIC): 17 µg/mL (≈ 41.5 µM); MIC (Enterobacter cloacae; strain A 9655, read-out: MIC): 50 µg/mL (≈ 122 µM); MIC (Enterobacter cloacae; strain A 9659, read-out: MIC): > 50 µg/mL; MIC (Enterobacter cloacae; strain A20344, read-out: MIC): > 50 µg/mL; MIC (Enterobacter cloacae; strain A20364, read-out: MIC): 3.1 µg/mL (≈ 7.57 µM); MIC (Enterobacter cloacae; strain A20464, read-out: MIC): 3.1 µg/mL (≈ 7.57 µM); MIC (Enterobacter cloacae; strain A20650, read-out: MIC): 0.8 µg/mL (≈ 1.95 µM); MIC (Enterobacter cloacae; strain A22551, read-out: MIC): > 50 µg/mL; MIC (Serratia species; (GM) of the Serratia species strains, read-out: Geometric mean of MIC): 44 µg/mL (≈ 107 µM); MIC (Serratia species; strain 6-330, read-out: MIC): 3.1 µg/mL (≈ 7.57 µM); MIC (Serratia species; strain 6-427, read-out: MIC): 3.1 µg/mL (≈ 7.57 µM); MIC (Serratia species; strain 6-920, read-out: MIC): > 50 µg/mL; MIC (Serratia species; strain 7-255, read-out: MIC): > 50 µg/mL; MIC (Serratia species; strain 7-454, read-out: MIC): > 50 µg/mL; MIC (Serratia species; strain 7-2322, read-out: MIC): > 50 µg/mL; MIC (Serratia species; strain 8-185, read-out: MIC): > 50 µg/mL; MIC (Serratia species; strain 8-513, read-out: MIC): 25 µg/mL (≈ 61.1 µM); MIC (Serratia species; strain 8-785, read-out: MIC): > 50 µg/mL; MIC (Serratia species; strain 8-1537, read-out: MIC): 25 µg/mL (≈ 61.1 µM); MIC (Serratia species; strain 9-50, read-out: MIC): > 50 µg/mL; MIC (Serratia species; strain 9-690, read-out: MIC): > 50 µg/mL; MIC (Morganella morganii; (GM) of the Morganella morganii strains, read-out: Geometric mean of MIC): 6.3 µg/mL (≈ 15.4 µM); MIC (Morganella morganii; IFO3843, strain IFO 3843 MS-1, read-out: MIC): 1.6 µg/mL (≈ 3.91 µM); MIC (Morganella morganii; strain A 9636, read-out: MIC): > 50 µg/mL; MIC (Morganella morganii; strain A20455, read-out: MIC): 1.6 µg/mL (≈ 3.91 µM); MIC (Proteus mirabilis; (GM) of the Proteus mirabilis strains, read-out: Geometric mean of MIC): 0.084 µg/mL (≈ 0.205 µM); MIC (Proteus mirabilis; IFO3849, strain IFO 3849 MS-1, read-out: MIC): 0.1 µg/mL (≈ 0.244 µM); MIC (Proteus mirabilis; strain A 9554, read-out: MIC): 0.1 µg/mL (≈ 0.244 µM); MIC (Proteus mirabilis; strain A 9702, read-out: MIC): 0.05 µg/mL (≈ 0.122 µM); MIC (Proteus mirabilis; strain A 9716, read-out: MIC): 0.1 µg/mL (≈ 0.244 µM); MIC (Proteus mirabilis; strain A20119, read-out: MIC): 0.05 µg/mL (≈ 0.122 µM); MIC (Proteus mirabilis; strain A20342, read-out: MIC): 0.1 µg/mL (≈ 0.244 µM); MIC (Proteus mirabilis; strain A20454, read-out: MIC): 0.1 µg/mL (≈ 0.244 µM); MIC (Proteus mirabilis; strain A21222, read-out: MIC): 0.1 µg/mL (≈ 0.244 µM); MIC [3]: 0.35 µg/mL (≈ 0.855 µM)
